Test results taken from PMC9499467, “Phenanthroindolizidine Alkaloids Isolated from Tylophora ovata as Potent Inhibitors of Inflammation, Spheroid Growth, and Invasion of Triple-Negative Breast Cancer” (International Journal of Molecular Sciences, 2022).
Read-outs that look alike come from different tables or passages of the source.

Columns and labels:
HIF-1α = experiment: HIF inhibition, HIF-mediated UnaG reporter expression; format: cell-based
Method: The HIF activity after treatment with compound (1s) or with the commercially available NFκB inhibitor BAY 11-7085 ((Hycultec, Beutelsbach, Germany; #HY-10257-10),) for 24 h was determined using the UnaG-reporter gene cell line MDA-MB-468-UnaG. On day 1, 1.5 × 10^4 MDA-MB-468-UnaG cells were seeded into a black 96 well plate (Greiner; #655090). […] HIF-mediated UnaG expression was recorded in z-stacked images using the CQ1 high-content imaging system (Yokogawa, Wehr, Germany; 100× g magnification). Beforehand, the UnaG fluorescence intensity was determined in UnaG-expressing cell clones (Figure S5).
Figure 7 Compound (1s) decreases HIF-dependent gene transcription. MDA-MB-468-UnaG cells were pre-treated for 1 h without (CTRL) or with compound (1s) or BAY 11-7085 (BAY) before being grown (a,b) in the absence (normoxia; CTRL) or (c,d) presence of 100 µM CoCl2 (hypoxia) for another 24 h. (a,c) Representative fluorescence images. Scale bar: 200 µm (b,d) Total fluorescence intensity of HIF-mediated UnaG was normalized to the CTRL group. Statistical difference was calculated with one-way ANOVA (b) vs. CTRL (normoxia) (ns = not significant, * p < 0.05). (d) vs. CTRL (hypoxia) (# p < 0.05); vs. CoCl2 (* p < 0.05, ** p < 0.01, *** p < 0.001). (b,d) Columns represent the mean ± SEM (n = 3).

NFκB [1] = experiment: NFκB inhibition assay (2 h), NFκB-dependent nanoluc luciferase reporter; format: cell-based, human
Method: Experiments were performed according to the published protocol. On day 1, 4 × 10^4 NFκB-MDA-MB-231-nanoluc cells were seeded into white 96 well plates (Greiner; #655098). On day 2, the medium was replaced with starvation medium and the cells were pre-incubated for 20 min with either 100 µL of DMSO (Roth; #A994.1) alone at a concentration of maximal 0.1% or with the final concentration of the diluted compounds (Table 3). To activate NFκB signaling, cells were stimulated with 1 µg/mL LPS (Sigma-Aldrich; #L2630) beforehand. NFκB-dependent luciferase activity was measured according to the manufacturer`s protocol for the Nano-Glo Luciferase Assay System (Promega, Mannheim, Germany; #N1110). NFκB-dependent luminescence was determined as relative light units (RLU) using the microplate reader Spark® (Tecan, Männedorf, Switzerland).

NFκB [2] = experiment: NFκB inhibition assay (24 h), NFκB-dependent firefly luciferase reporter; format: cell-based; conditions: Homo sapiens, read-out: NFκB Inhibition 24 h IC50
Method: On day 1, 3 × 10^4 NFκB MDA-MB-231-firefly cells were seeded into white 96 well plates (Greiner; #655098). On day 2, the medium was replaced with starvation medium and the cells were pre-incubated for 20 min with either 100 µL of DMSO (Roth; #A994.1) alone at maximal 0.1%, or with the final concentration of the diluted compounds (Table 3). To activate NFκB signaling, cells were stimulated with 20 ng/mL TNFα (Peprotech, Hamburg, Germany; #300-01A). Cell lysis was performed in 20 µL 1× cell lysis buffer according to the manufacturer’s instruction for the Luciferase Assay System (Promega #E1500). NFκB-dependent luminescence was determined as relative light units (RLU) using the microplate reader Spark® (Tecan).

HIF = system: HIF; set-up: method as in earlier work; conditions: luminal breast cancer cell line T47D; ref 62 (Chen et al.); cited from earlier work
MDA-MB-231 = experiment: 2D cell viability (PrestoBlue resazurin) in MDA-MB-231; format: cell-based, human; conditions: Homo sapiens
Method: Cell viability was determined based on resazurin-reduction in viable cells according to the PrestoBlue^TM Assay. On day 1, MDA-MB-231 (1.5 × 10^4 cells per well or 7.5 × 10^3 cells per well) were seeded into black 96 well plates (Greiner; #655090) in a total volume of 100 µL. On day 2, the compounds or DMSO (Roth; #A994.1) alone at maximal 0.1% were applied (final concentrations after serial dilution shown in Table 3). An amount of 20 µM staurosporine (Sigma-Aldrich; #S5921) served as a positive control. On day 3, the PrestoBlue^TM reagent (Invitrogen^TM, Darmstadt, Germany; #A13262) was applied according to the manufacturer`s instructions. Finally, cell viability-dependent fluorescence was recorded in relative fluorescence units (RFU) with excitation/emission (Exλ/Emλ) at 535/590 nm or 560/590 nm, using the microplate reader Spark® (Tecan).

CAFs = experiment: 2D cell viability in CAFs; format: cell-based, murine; conditions: Mus musculus, 24 h, read-out: Reduction of Cell Viability 24 h IC50 in CAFs
Method: Table S1 IC50-values for reduction of cell viability determined in CAFs.
Compound Cell Viability 1
1 Cell viability of CAFs was determined 24 h post-treatment with the 2D cell viability assay. CAFs were seeded at a cell density of 2.5 × 10^3 cells per well. Compound concentration was applied in triplicates in a four-fold serial dilution starting at 1000 nM. 2 Duration of treatment. 3 Mean ± SD […]
50 µM. 4 Mean ± SD (n = 3). 5 Mean ± SD (n = 2).

[3] = system: 3D co-culture spheroids of MDA-MB-231 and primary murine CAFs; experiment: 3D cell viability (ATP content) in TNBC co-culture spheroids; format: cell-based, human MDA-MB-231; conditions: for IC50: Mus musculus
Method: On day 1, 3000 cells were seeded into a low-attachment 96 well plate (Greiner; #650970). […] Cell viability was determined based on the ATP content in viable cells according to the manufacturer`s instructions (Promega #G9682). Co-culture spheroids were generated for 72 h before they were grown for another 72 h with or without exposure to the compounds. […] Cell viability-dependent luminescence was determined as relative light units (RLU) using the microplate reader Spark® (Tecan).

[4] = NFκB-MDA-MB-231-firefly cells, 24-h treatment, 20 ng/mL TNFα, mean ± SD
[5] = MDA-MB-231 2D monolayer, 24 h post-treatment, mean ± SD, read-out: Reduction of Cell Viability 24 h IC50
[6] = Homo sapiens, NFκB-MDA-MB-231-nanoluc cells, 2-h treatment, mean ± SD, read-out: NFκB Inhibition 2 h IC50
[7] = MDA-MB-231, 3D co-culture spheroids, 72 h treatment, mean ± SD (n = 3), read-out: Reduction of Cell Viability 72 h IC50

SMILES | IC50 (NFκB [2]; [4]) | HIF induction under low oxygen level (HIF) | IC50 (MDA-MB-231; [5]) | IC50 (NFκB [1]; [6]) | IC50 (CAFs; CAFs, mean ± SD (n = 3)) | IC50 [3, 7] | further results
CC(C)(C)c1ccc(S(=O)(=O)/C=C/C#N)cc1 [BAY 11-7085, reference compound] |  |  |  |  |  |  | effect on HIF-1α-mediated UnaG expression (HIF-1α; normoxia): no significant effects; CoCl2-induced increase in HIF-1α-activity (HIF-1α; pre-treatment before CoCl2-simulated hypoxia, 6 µM BAY 11-7085, 2, 5, 10, 20 nM (1s)): blocked; IC50 (NFκB [1]; NFκB-MDA-MB-231-nanoluc cells, 2-h treatment, mean ± SD, read-out: NFκB Inhibition 2 h IC50): 5500 ± 2000 nM
COc1ccc2c3c(c4cc(OC)c(O)cc4c2c1)CN1CCC[C@H]1[C@H]3O [Compound (2), tylophorinidine] | 38.2 ± 14.2 nM | blockade of HIF induction | 118 ± 35 nM | 212 ± 69.9 nM | 19.7 ± 3.7 nM | 442 ± 70.8 nM | 
COc1cc2c3c(c4ccc(O)cc4c2cc1OC)[C@H](O)[C@@H]1CCCN1C3 [Compound (3), tylophoridicine E] | 114 ± 17.9 nM | blockade of HIF induction | 55.3 ± 13.2 nM | 285 ± 60.4 nM | 26.7 ± 3.1 nM | 477 ± 160 nM | 
COc1ccc2c3c(c4cc(OC)c(OC)cc4c2c1)CN1CCC[C@H]1C3 [Compound (4), 2-demethoxytylophorine] |  |  |  |  |  |  | IC50 (NFκB [2]; 24 h): 28.3 ± 5.6 nM; IC50 (MDA-MB-231; MDA-MB-231, 24 h, read-out: Reduction of Cell Viability 24 h IC50, MDA-MB-231 2D monolayer, 24 h post-treatment, mean ± SD): 127 ± 21.4 nM; IC50 (NFκB [1]; Homo sapiens, 2 h, read-out: NFκB Inhibition 2 h IC50, NFκB-MDA-MB-231-nanoluc cells, 2-h treatment, mean ± SD): 83 ± 14.7 nM; IC50 (CAFs): 33.5 ± 12.7 nM; IC50 ([3]; MDA-MB-231, 72 h, read-out: Reduction of Cell Viability 72 h IC50, 3D co-culture spheroids, 72 h treatment, mean ± SD (n = 3)): 518 ± 76.8 nM
COc1ccc2c(c1)c1cc(OC)c(OC)cc1c1c[n+]3c(cc21)CCC3 [Compound (5), tylophoridicine D] | > 1000 nM | not | > 1000 nM | > 1000 nM | > 1000 nM | > 1000 nM | cytotoxic activity ([3]; in MDA-MB-231 or in the 3D co-culture spheroids): no cytotoxic activity
COc1ccc2c(c1)c1cc(O)c(OC)cc1c1c[n+]3c(cc21)CCC3 [Compound (6), anhydrodehydrotylophorinidine] | > 1000 nM |  | > 1000 nM | > 1000 nM | > 1000 nM | > 1000 nM | cytotoxic activity [3]: no cytotoxic activity
COc1ccc2c3c(c4cc(OC)c(OC)cc4c2c1)CN1CCC[C@H]1[C@@H]3O [tylophorinine] |  | blockade of HIF induction |  |  |  |  | 
